Test results from patent publication US20240043372A1, “SUBSTITUTED AROMATIC COMPOUNDS AND PHARMACEUTICAL COMPOSITIONS THEREOF” (PHARMACEUTIQUE INGENEW INC., priority 2020, published 2024).
Entries after “also recorded” stand apart in the source; their conditions may differ.

Tests used:
[1] = tested on: PC-3 cells (human prostate cancer cells); test: PC-3 cell proliferation (MTT); format: cell-based; details: 24 hours
Procedure: Antiproliferative activity of representative compounds on cancer cells was also undertaken by using PC-3 cells (human prostate cancer cells). PC-3 cells were cultured for 24 hours in 96-well plates with or without Compounds or Positive Control (PCtrl: sodium 2-(2-hydroxy-3,5-dipentylphenyl)acetate) or Setogepram CAS No.: 1002101-19-0 from MedChemExpress LLC, USA) at various concentrations. The last four hours of incubation, 50 μl of a freshly made solution of MTT at 2 mg/ml in PBS were added. Cells were harvested, 150 μl of DMSO were added to solubilize the formazan crystal formed and the plates were read the plate at 570 nm.

[2] = tested on: carboplatin-resistant PDX glioblastoma (GBM20-75); test: Avatar CAM assay, patient-derived xenograft glioblastoma; format: in vivo, human; details: FIG. 3, PDX glioblastoma resistant to carboplatin
Procedure: (§1) In this example, representative compounds of the present disclosure were tested for their respective effect on tumors using a model of Avatar Chick Chorioallantoic Membrane (CAM) assay. CAM assays have been widely used to study angiogenesis and tumor invasion of colorectal, prostate and brain cancers, as well as for studying patient-derived xenograft for potential personalized medicine.
(§2) The present inventor has tested representative compounds from the present disclosure or a Positive Control (PCtrl: sodium 2-(2-hydroxy-3,5-dipentylphenyl)acetate) as per the following. Fertilized eggs from white leghorn chicken were used and incubated in an Ova-Easy egg incubator at 37° C. with 60% humidity. At day 3, eggs were cracked. At day 9, U87 (human glioblastoma) cell suspensions (1×10^6 cells), or Caki cells or patient-derived xenograph (glioblastoma fragment) were mixed (1:1) with growth factor reduced Matrigel™ in a total volume of 20 μl for cell lines and POX-patient fragments were placed directly on top of the CAM and were returned to the incubator. Intravenous injection at day 11 or topical administration (Day 11 to Day 16) with or without the compounds. At day 16, chick embryos were killed by decapitation. Tumours were removed and tumour volumes were calculated using the formula: (Dd^2/3).

[3] = tested on: PDX-fragments from IPF lungs; test: Avatar CAM model, PDX-IPF lung fragments (volume, Masson's trichrome); format: in vivo, human; details: for collagen deposition in the PDX-IPF fragment: FIG. 5, Masson's trichrome staining
Procedure: Avatar CAM model was also used to determine the antifibrotic activity of the representative compounds. Briefly, fertilized eggs from white leghorn chicken were used and incubated in an Ova-Easy egg incubator at 37° C. with 60% humidity. At day 3, eggs were cracked. At day 9, PDX-fragments from IPF lungs were grafted on top of the CAM and were returned to the incubator. Treatment by intravenous injection of compounds was performed at day 11 and at day 16, chick embryos were killed by decapitation. IPF-PDX fragments were removed and volumes were calculated using the formula: (Dd^2/3). Fibrosis was determined by a Masson's trichrome staining.

[4] = tested on: human fibrosarcoma HT1080 cell; test: Avatar CAM assay, HT1080 tumour; format: in vivo; details: tumour volume at day 16, symbols X to XXXX not defined
[5] = tested on: human renal carcinoma Caki cells; test: Avatar CAM assay, Caki tumour; format: in vivo; details: for Anticancer Activity Caki: Avatar CAM, tumour volume at day 16, symbols X to XXXX not defined; for anticancer activity relative to Sorafenib: FIG. 2, Caki cells in CAM Avatar model
Procedure: as §1, §2

human glioblastoma U87 = test: Avatar CAM assay, U87 tumour; format: in vivo; details: for Anticancer Activity U87: Avatar CAM, tumour volume at day 16, symbols X to XXXX not defined
Procedure: as §1, §2

Structure (SMILES)	inhibition at 12.5 µM [1] [%]	inhibition at 25 µM [1] [%]	inhibition at 50 µM [1] [%]	inhibition at 100 µM [1] [%]	inhibition at 200 µM [1] [%]	also measured
CCCCCc1cc(CCCCC)c(O)c(CC(N)=O)c1 [Representative Compound 1]	0	0	0	0	0	
CCCCCc1cc(CCO)c(N)c(CCCCC)c1 [Representative Compound 3]	0	39.1	67.4	62.1	65.8	
CCCCCc1cc(CCCCC)c(O)c(CC(=O)O)c1 [PCtrl, sodium 2-(2-hydroxy-3,5-dipentylphenyl)acetate, reference compound]	0	0	0	0	20	
N.N.O=C([O-])C1(C(=O)[O-])CCC1.[Pt+2] [carboplatin, reference compound]						growth (volume) response of PDX glioblastoma to treatment [2]: effectively resistant
CCCCCc1cccc(CCO)c1 [Representative Compound 4]						inhibition at 62.5 µM [1]: 26.1%; inhibition at 125 µM [1]: 30.3%; inhibition at 250 µM [1]: 74.2%; inhibition at 500 µM [1]: 72.9%; inhibition at 1000 µM [1]: 70.4%; Antifibrotic Activity PDX (IPF lungs) ([3]; Avatar CAM, reduction of volume growth of PDX-IPF fragments, symbols not defined): XXXX; volume of the PDX-IPF fragments ([3]; FIG. 4, intravenous injection at day 11, volume at day 16): reduces significantly the volume; collagen deposition in the PDX-IPF fragment [3]: reduce collagen deposition; Anticancer Activity HT1080 [4]: XXX
CCCCCc1cccc(CC(=O)O)c1 [Setogepram, reference compound]						inhibition at 62.5 µM [1]: 16.8%; inhibition at 125 µM [1]: 5.7%; inhibition at 250 µM [1]: 10.4%; inhibition at 500 µM [1]: 0%; inhibition at 1000 µM [1]: 0%; collagen deposition in the PDX-IPF fragment [3]: reduce collagen deposition; also recorded: reduced the collagen deposition
CCCCCc1cc(CCO)c(O)c(CCCCC)c1 [Representative Compound 2]	0	63.6	70	72.2	66.3	Anticancer Activity Caki [5]: XXXX; anticancer activity relative to Sorafenib [5]: reach the anticancer activity of Sorafenib; growth (volume) response of PDX glioblastoma to treatment [2]: does not respond; Anticancer Activity U87 (human glioblastoma U87): XXX
OCCc1cc(Cc2ccccc2)cc(Cc2ccccc2)c1 [Representative Compound 5]	1.7	42.8	70.6	72.2	53	Anticancer Activity Caki [5]: XXXX; anticancer activity relative to Sorafenib [5]: reach the anticancer activity of Sorafenib; Anticancer Activity U87 (human glioblastoma U87): XXXX; anticancer activity relative to carboplatin (human glioblastoma U87; FIG. 1, U87 in CAM Avatar model): reached the anticancer activity of carboplatin; Anticancer Activity HT1080 [4]: XXX
